The values that follow come from PMC12322656, “N‐ to C‐Glycoside Rearrangement of Uridine 5′‐Phosphate in Two Enzymatic Steps for the Production of Pseudouridine 5′‐Phosphate” (Biotechnology and Bioengineering, 2025).

Changes are numbered by the printed parent chain.

The target of experiment [1] is T1, PpnN (purine/pyrimidine nucleotide 5'-phosphate nucleosidase; EC 3.2.2.10) (Escherichia coli, UniProt P0ADR8, R341A/Y347A).
T1 construct: subunit 51,794 Da (wild type; RY 51,440 Da); wild type tetramer, RY variant monomer
T1 sequence (P0ADR8 1-454 R341A/Y347A): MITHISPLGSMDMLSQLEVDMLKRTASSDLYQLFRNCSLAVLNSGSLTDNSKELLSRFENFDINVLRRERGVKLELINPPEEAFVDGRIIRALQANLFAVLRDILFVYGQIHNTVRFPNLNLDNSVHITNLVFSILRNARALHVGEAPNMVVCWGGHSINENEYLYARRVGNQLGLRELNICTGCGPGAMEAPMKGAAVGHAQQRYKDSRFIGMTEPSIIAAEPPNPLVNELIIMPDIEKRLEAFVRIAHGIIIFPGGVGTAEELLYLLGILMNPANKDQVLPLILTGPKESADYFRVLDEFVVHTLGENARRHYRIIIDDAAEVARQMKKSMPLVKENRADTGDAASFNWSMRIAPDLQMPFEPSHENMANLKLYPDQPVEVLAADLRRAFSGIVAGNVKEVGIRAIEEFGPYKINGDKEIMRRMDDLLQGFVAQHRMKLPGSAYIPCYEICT
In words: initial-rate inhibition, HPLC of uracil release, nonlinear fit. The experiment is classed as biochemical. The settings on record: substrate UMP; 50 mM HEPES pH 7.5, 40 °C; competitive; RY variant, monomer.

The target of experiment [2] is T2, PpnN (purine/pyrimidine nucleotide 5'-phosphate nucleosidase; EC 3.2.2.10) (Escherichia coli, UniProt P0ADR8).
T2 construct: subunit 51,794 Da (wild type; RY 51,440 Da); wild type tetramer, RY variant monomer
T2 sequence (P0ADR8 1-454): T1 sequence (P0ADR8 1-454 R341A/Y347A) with A341R, A347Y
The experiment is described as above. The settings on record: substrate UMP; 50 mM HEPES pH 7.5, 40 °C; competitive; wild type. The experiment is classed as biochemical.

`O=P(O)(O)OC[C@H]1OC(O)[C@H](O)[C@@H]1O` (stereo partly drawn) [D-ribose 5-phosphate]: the values for the inhibitory constant (Ki) in experiment [1] and in experiment [2] were 1200 ± 100 µM and 100 µM, respectively.
